Experimental data from US11407725B2 (The Board of Trustees of the University of Illinois, priority 2018, dated 2022).

How the values were obtained:
[1] = test system: ALDH isoforms; test: BAAA isoform selectivity assay; type: biochemical, human; conditions: 18 μM BAAA, 20 units of each isoform
Method: BAAA activation was determined using UV/Vis spectroscopy. A 2 mM stock solution of BAAA was prepared in DMSO and activated with 2M HCL as described in the ALDEFLUOR™ Kit protocol ([…] Technologies Inc.). Immediately before measurement, BAAA was added to the reaction mixture described above to a final concentration of 18 μM. The solution was mixed vigorously, and the reaction proceeded at room temperature. UV/Vis absorbance spectra were taken from 300 to 500 nm every 30 seconds for 15 minutes. The rate of NADH produced per minute was calculated according to the absorbance at 340 nm (ε=[…] cm^−1). All measurements were performed in triplicate and reported as the average±standard deviation. 20 units of enzyme and 18 μM of BAAA were necessary to detect a significant increase in absorbance at 340 nm for the ALDH1A1 isoform.

[2] = target: T1, ALDH1A3 (Homo sapiens, UniProt P47895); test: ALDH isoform selectivity of red probes: ALDH1A3; type: biochemical; conditions: Table 2
T1 construct: made in house
T1 sequence (P47895 1-512): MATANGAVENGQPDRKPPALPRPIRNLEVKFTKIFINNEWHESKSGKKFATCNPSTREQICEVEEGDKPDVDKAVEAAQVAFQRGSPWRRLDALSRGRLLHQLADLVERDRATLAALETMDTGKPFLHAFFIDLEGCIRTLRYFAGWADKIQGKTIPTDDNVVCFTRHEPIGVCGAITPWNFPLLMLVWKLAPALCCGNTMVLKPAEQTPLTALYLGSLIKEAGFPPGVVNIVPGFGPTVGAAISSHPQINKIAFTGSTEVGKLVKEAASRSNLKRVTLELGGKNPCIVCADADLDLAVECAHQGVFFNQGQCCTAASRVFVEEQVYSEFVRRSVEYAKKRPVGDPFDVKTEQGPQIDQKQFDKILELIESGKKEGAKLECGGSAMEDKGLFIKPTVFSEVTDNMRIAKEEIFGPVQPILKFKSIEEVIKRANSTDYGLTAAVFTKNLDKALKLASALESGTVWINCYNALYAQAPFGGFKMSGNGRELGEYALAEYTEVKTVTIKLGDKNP
Method: (§1) Each ALDH isoform was added to a 50 mM triethanolamine solution (pH 7.4) containing 2.0 mM NAD^+ and 100 μM substrate at room temperature. Benzaldehyde was the substrate for ALDH3A1. Propanal was the substrate for all other isoforms. ALDH isoform activity was determined by monitoring the rate of NADH production through the increase in absorbance at 340 nm (ε=6220 M^−1cm^−1). For these assays, 1 unit is defined as the amount of enzyme that catalyzes the conversion of […] per minute. For every combination of dye and enzyme, 2 μM dye was preincubated with 2.0 mM NAD^+ in 50 mM triethanolamine solution (pH 7.4). The reaction was initiated by addition of 1 unit of ALDH. Dyes were excited at 590 nm, and fluorescence was measured continuously at 610 nm.

[3] = target: T2, ALDH1A1 (Homo sapiens, UniProt P00352); test: ALDH isoform selectivity of red probes: ALDH1A1; type: biochemical; conditions: Table 2
T2 construct: made in house
T2 sequence (P00352 1-501): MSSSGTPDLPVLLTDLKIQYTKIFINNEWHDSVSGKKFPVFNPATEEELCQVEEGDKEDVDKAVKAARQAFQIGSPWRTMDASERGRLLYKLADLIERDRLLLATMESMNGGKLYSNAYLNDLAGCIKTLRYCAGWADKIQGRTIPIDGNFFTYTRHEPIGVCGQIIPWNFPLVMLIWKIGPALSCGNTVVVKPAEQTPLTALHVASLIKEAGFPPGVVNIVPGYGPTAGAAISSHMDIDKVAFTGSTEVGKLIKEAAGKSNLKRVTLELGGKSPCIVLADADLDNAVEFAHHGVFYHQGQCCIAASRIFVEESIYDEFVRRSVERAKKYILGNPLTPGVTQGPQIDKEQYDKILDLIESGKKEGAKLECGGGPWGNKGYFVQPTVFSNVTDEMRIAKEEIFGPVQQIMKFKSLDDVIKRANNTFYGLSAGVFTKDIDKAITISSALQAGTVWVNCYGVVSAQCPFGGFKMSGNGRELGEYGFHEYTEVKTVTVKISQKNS
Method: as §1

[4] = Photophysical properties (absorbance, emission, extinction coefficient, quantum yield); type: physicochemical; conditions: Probes 1-8
[5] = target: T2, ALDH1A1; test: ALDH isoform selectivity of red probes: ALDH1A1; type: biochemical

SMILES	reactivity with ALDH isoforms [1]	Enzyme Activity 1A3 [2]	Enzyme Activity 1A1 [3]	Enzymatic Turn On ([3]; ALDH1A1, 2 μM dye)	Quantum Yield [4]	enzyme kinetics with ALDH1A1 [5]
Cc1cc(C)n2c1C=C1C=CC(CCC(=O)NCC=O)=[N+]1[B-]2(F)F [BAAA, BODIPY-aminoacetaldehyde]	react with a variety of isoforms	–	–	–	–	–
C[Si]1(C)C2=CC(=O)C=CC2=C(c2ccc(C=O)cc2C(F)(F)F)c2ccc(O)cc21 [Probe 3, 4-(7-Hydroxy-5,5-dimethyl-3-oxo-3,5-dihydrodibenzo[b, e]silin-10-yl)-3-(trifluoromethyl)benzaldehyde]	–	Low	Medium	2.7	0.25	slow enzyme kinetics
